Columns and labels:
[1] = system: HBV DNA replication in HepG2.2.15 cells; experiment: In vitro anti-HBV activity test (quantitative assay of intracellular HBV DNA), HepG2.2.15 cells, quantitative PCR; assay type: cell-based, hepatitis B virus (HBV); conditions: Hepatitis B virus, HBV DNA by quantitative PCR; for EC50: compound treatment Day 2 to Day 8; for Emax: read-out: Emax (effect value of the compound to maximally inhibit HBV DNA replication)
Protocol: In vitro anti-HBV activity test of the compound of the present invention (quantitative assay of intracellular HBV DNA)
HepG2.2.15 cell is a stable expression cell line that has integrated HBV genome.
Virus particles containing HBV DNA can be synthesized by replication, transcription and encapsidation in the cells, and then secreted. In this study, the quantitative analysis of HBV DNA produced by HepG2.2.15 in vitro proliferation was carried out by quantitative PCR method, thereby determining the activity of the compound of the present invention on inhibiting the HBV DNA replication by inhibiting the assembly of HBV capsid protein.
HepG2.2.15 cells were cultured in DMEM/high glucose medium (10% FBS, […] G418) and passaged every three days. On the day of the experiment, a cell suspension was prepared with fresh cell culture medium, and incubated in a 96-well plate (Corning, #3599) at 40,000 cells/well, at 5% carbon dioxide, 37° C. On Day 2, the compound was dissolved in pure DMSO at a concentration of 20 mM, and then the first concentration of 2 mM was formulated with DMSO, and diluted in 4-fold concentration gradient to 8 concentrations. A control well was added with 90 μl of DMSO. The compound solution was diluted 200-fold with DMEM/high glucose medium. The cell culture plate inoculated on Day 1 was taken out. The medium in the wells was removed by a negative pressure suction device, and the formulated medium containing the compound at each concentration was added respectively to each well at 200 μl/well. The plate was incubated at 37° C. for 72 hours. On Day 5, the medium of the cultured cells was replaced with fresh medium containing the same compound in the same way as Day 2, and then the plate was incubated at 37° C. for 72 hours. On Day 8, the cell culture plate was taken out, centrifuged at 300 g for 3 minutes, and the culture supernatant was collected at 200 μl/well. HBV DNA was extracted from the cell culture supernatant with Qiagen automatic DNA extraction device, and the specific method referred to the instructions of the reagents and instruments. Finally, the extracted DNA was eluted with DNA elution buffer at 100 μl/well. The extracted DNA was subjected to quantitative PCR analysis of HBV DNA using Hepatitis B virus nucleic acid quantitative detection kit (Triplex International Biosciences Co., Ltd.), and the specific method referred to the instruction of the kit. The quantitative standard curve was obtained with the standard sample provided in the kit, and the experiments were performed in parallel. Quantitative conversion of each sample was carried out according to the standard curve. Finally, the EC50 value of the compound was calculated with Graphpad Prism software according to each concentration of the compound and the corresponding DNA value.
The in vitro activity of the compound of the present invention on inhibiting the HBV DNA replication by inhibiting the assembly of HBV capsid protein was determined by the above experiment.

[2] = Effect on in vitro proliferation of HepG2 cells (CellTiter-Glo); assay type: cell-based; conditions: human; HepG2 cells, 72 hours, CellTiter-Glo
Protocol: Test Example 2. Effect of the Compound of the Present Invention on In Vitro Proliferation of HepG2 Cells
HepG2 cells in logarithmic growth phase were taken and digested with trypsin to prepare a cell suspension, which was incubated in a 96-well plate (transparent bottom white 96-well plate, PerkinElmer) at 6,000 cells/well, at 5% carbon dioxide, 37° C. for 16-20 hours. On Day 2, the compound was dissolved in pure DMSO at a concentration of 20 mM. The compound was diluted in 3-fold concentration gradient using an automatic pipetting station (Bravo), 8 concentration points for each compound, and the control well was DMSO. The compound formulated in DMSO at each concentration point was diluted 200-fold with EMEM (containing 10% FBS) medium. The cell culture plate inoculated on Day 1 was taken out. The medium in the wells was removed by a negative pressure suction device, and the formulated medium containing the compound at each concentration was added respectively to each well at 100 μl/well. The plate was incubated at 37° C. for 72 hours. On Day 5, the 96-well cell culture plate was taken out, and freshly formulated CellTiter Glo was added to each well at 100 μl/well. The 96-well plate was left to stand for 5-10 minutes, the bottom was then sealed with a white bottom sealing film (PerkinElmer). The plate was placed in the microplate reader to measure the luminescence signal. The CC50 value of the compound was calculated with Graphpad Prism software according to each concentration of the compound and the corresponding proliferation inhibition signal value.
The inhibition effect of the compound of the present invention on in vitro proliferation of HepG2 cells was determined by the above experiment.

[3] = Pharmacokinetics assay in rats after intragastrical administration (LC/MS/MS of plasma); assay type: in vivo; conditions: both sexes, rat, plasma, po, SD rats, 2 mg/kg; for Vd/F: read-out: Apparent distribution volume Vz/F; for AUC: read-out: Area under curve AUC; for bioavailability: read-out: Bioavailability (%) F %; for CL/F: read-out: Clearance CLz/F; for half-life: read-out: Half-life T1/2 (converted); for Cmax: read-out: Plasma concentration Cmax; for MRT: read-out: Residence time MRT
Protocol: Pharmacokinetics assay of the compound of the present invention
Rats were used as test animals. The drug concentration in plasma at different time points was determined by LC/MS/MS method after intragastrical administration of the compound of Example 1, the compound of Example 2, the compound of Example 4, the compound of Example 6, the compound of Example 7, the compound of Example 11, the compound of Example 39, the compound of Example 42, the compound of Example 44, the compound of Example 45 and the compound of Example 47 to rats. The pharmacokinetic behavior and property of the compound of the present invention were studied and evaluated in rats.
44 Healthy adult SD rats (half male and half female, 4 rats/group) were purchased from Shanghai Jiesijie Laboratory Animal Co., LTD, with Certificate No.: SCXK (Shanghai) 2013-0006.
A certain amount of the test compound was weighed, and added with 5% by volume of DMSO, 5% by volume of tween 80 and 90% by volume of normal saline to prepare a 0.2 mg/mL colorless, clear and transparent solution.
After an overnight fast, SD rats were administrated intragastrically with the test compound at an administration dose of 2.0 mg/kg and an administration volume of 10.0 mL/kg.
The rats were intragastrically administrated the compound of Example 1, the compound of Example 2, the compound of Example 4, the compound of Example 6, the compound of Example 7, the compound of Example 11, the compound of Example 39, the compound of Example 42, the compound of Example 44, the compound of Example 45 and the compound of Example 47. 0.1 ml of blood was taken from the orbit before administration and at 0.5, 1.0, 2.0, 4.0, 6.0, 8.0, 11.0 and 24.0 hours after administration. The samples were stored in heparinized tubes, and centrifuged for 10 minutes at 3500 rpm to separate the blood plasma. The plasma samples were stored at −20° C. The rats were fed two hours after administration.
The content of the test compound in the plasma of rats after intragastrical administration of the test compound at different concentrations was determined: 25 μL of rat plasma at each time after administration was taken, added with 40 μL of the internal standard solution of camptothecin (100 ng/mL) and 200 μL of acetonitrile, vortex-mixed for 5 minutes, and centrifuged for 10 minutes (4000 rpm). 0.2 μL of the supernatant was taken from the plasma samples for LC/MS/MS analysis.

Structure (SMILES): C[C@@H]1CN(C(=O)Nc2ccc(F)c(C#N)c2)Cc2c(C(=O)N[C@H](C)C(F)(F)F)ncn21 [Example 47, (R)—N^7-(3-Cyano-4-fluorophenyl)-5-methyl-N^1-((R)-1,1,1-trifluoropropan-2-yl)-5,6-dihydroimidazo[1,5-α]pyrazine-1,7(8H)-dicarboxamide]
- EC50 [1]: 82 nM
- Emax [1]: 100%
- CC50 at 72 h [2]: > 100000 nM
- Vd/F [3]: 5.69 ± 2.24 L/kg
- AUC [3]: 7260 ± 3050 ng·h/mL
- bioavailability [3]: 125%
- CL/F [3]: 5.4 ± 2.69 mL/min/kg
- half-life [3]: 13.1 ± 4.3 h
- Cmax [3]: 462 ± 94 ng/mL
- MRT [3]: 17.7 ± 6.3 h

Structure (SMILES): C[C@@H](NC(=O)c1cnn2c1CN(C(=O)Nc1cc(F)c(F)c(F)c1)CC2)C(F)(F)F [Example 4, (R)—N^5-(3,4,5-Trifluorophenyl)-N^3-(1,1,1-trifluoropropan-2-yl)-6,7-dihydropyrazolo[1,5-α]pyrazine-3,5(4H)-dicarboxamide]
- EC50 [1]: 27 nM
- Emax [1]: 100%
- CC50 at 72 h [2]: > 100000 nM
- Vd/F [3]: 3.69 ± 0.532 L/kg
- AUC [3]: 7130 ± 2640 ng·h/mL
- bioavailability [3]: 120%
- CL/F [3]: 5.08 ± 1.48 mL/min/kg
- half-life [3]: 8.8 ± 1.95 h
- Cmax [3]: 425 ± 100 ng/mL
- MRT [3]: 13.1 ± 2.5 h

Structure (SMILES): C[C@H]1Cn2cnc(C(=O)N[C@H](C)C(F)(F)F)c2CN1C(=O)Nc1ccc(F)c(F)c1 [Example 6, (S)—N^7-(3,4-Difluorophenyl)-6-methyl-N^1-((R)-1,1,1-trifluoropropan-2-yl)-5,6-dihydroimidazo[1,5-α]pyrazine-1,7(8H)-dicarboxamide]
- EC50 [1]: 4 nM
- Emax [1]: 100%
- CC50 at 72 h [2]: > 100000 nM
- Vd/F [3]: 2.16 ± 0.721 L/kg
- AUC [3]: 12900 ± 6600 ng·h/mL
- bioavailability [3]: 120%
- CL/F [3]: 3.22 ± 1.66 mL/min/kg
- half-life [3]: 10.8 ± 8.1 h
- Cmax [3]: 629 ± 167 ng/mL
- MRT [3]: 16.7 ± 10.1 h

Structure (SMILES): C[C@H]1Cn2ncc(C(=O)N[C@H](C)C(F)(F)F)c2CN1C(=O)Nc1ccc(F)c(F)c1 [Example 7, (S)—N^5-(3,4-Difluorophenyl)-6-methyl-N^3-((R)-1,1,1-trifluoropropan-2-yl)-6,7-dihydropyrazolo[1,5-α]pyrazine-3,5(4H)-dicarboxamide]
- EC50 [1]: 38 nM
- Emax [1]: 100%
- CC50 at 72 h [2]: > 100000 nM
- Vd/F [3]: 1.65 ± 0.174 L/kg
- AUC [3]: 16500 ± 9260 ng·h/mL
- bioavailability [3]: 98%
- CL/F [3]: 2.63 ± 1.46 mL/min/kg
- half-life [3]: 9.72 ± 5.94 h
- Cmax [3]: 1080 ± 151 ng/mL
- MRT [3]: 14.1 ± 8 h

Structure (SMILES): C[C@H]1Cn2ncc(C(=O)N[C@H](C)C(F)(F)F)c2CN1C(=O)Nc1ccc(F)c(C#N)c1 [Example 15, (S)—N^5-(3-Cyano-4-fluorophenyl)-6-methyl-N^3-((R)-1,1,1-trifluoropropan-2-yl)-6,7-dihydropyrazolo[1,5-α]pyrazine-3,5(4H)-dicarboxamide]
- EC50 [1]: 29 nM
- Emax [1]: 100%
- CC50 at 72 h [2]: > 100000 nM

Structure (SMILES): C[C@H]1Cn2ncc(C(=O)N[C@H](C)C(F)(F)F)c2CN1C(=O)Nc1cc(F)nc(F)c1 [Example 16, (S)—N^5-(2,6-Difluoropyridin-4-yl)-6-methyl-N^3-((R)-1,1,1-trifluoropropan-2-yl)-6,7-dihydropyrazolo[1,5-α]pyrazine-3,5(4H)-dicarboxamide]
- EC50 [1]: 50 nM
- Emax [1]: 100%
- CC50 at 72 h [2]: > 100000 nM

Structure (SMILES): C[C@H]1Cn2cnc(C(=O)NC3(C)CCC3)c2CN1C(=O)Nc1ccc(F)c(C#N)c1 [Example 46, (S)—N^7-(3-Cyano-4-fluorophenyl)-6-methyl-N^1-(1-methylcyclobutyl)-5,6-dihydroimidazo[1,5-α]pyrazine-1,7(8H)-dicarboxamide]
- EC50 [1]: 65 nM
- Emax [1]: 97%
- CC50 at 72 h [2]: > 100000 nM

Structure (SMILES): Cc1cc(NC(=O)N2Cc3c(C(=O)N[C@H](C)C(F)(F)F)nnn3C[C@@H]2C)ccc1F [Example 40, (S)—N^5-(4-Fluoro-3-methylphenyl)-6-methyl-N^3-((R)-1,1,1-trifluoropropan-2-yl)-6,7-dihydro-[1,2,3]triazolo[1,5-α]pyrazine-3,5(4H)-dicarboxamide]
- EC50 [1]: 20 nM
- Emax [1]: 100%
- CC50 at 72 h [2]: > 100000 nM

Structure (SMILES): C[C@H]1Cn2ncc(C(=O)NC(C)(C)C)c2CN1C(=O)Nc1ccc(F)c(F)c1 [Example 8, (S)—N^3-(Tert-butyl)-N^5-(3,4-difluorophenyl)-6-methyl-6,7-dihydropyrazolo[1,5-α]pyrazine-3,5(4H)-dicarboxamide]
- EC50 [1]: 15 nM
- Emax [1]: 100%
- CC50 at 72 h [2]: > 100000 nM

Structure (SMILES): Cc1cc(NC(=O)N2Cc3c(C(=O)N[C@H](C)C(F)(F)F)ncn3C[C@@H]2C)ccc1F [Example 58, (S)—N^7-(4-Fluoro-3-methylphenyl)-6-methyl-N^1-((R)-1,1,1-trifluoropropan-2-yl)-5,6-dihydroimidazo[1,5-α]pyrazine-1,7(8H)-dicarboxamide]
- EC50 [1]: 15 nM
- Emax [1]: 100%
- CC50 at 72 h [2]: > 100000 nM

Reference: patent US11247998B2, “Piperazine heteroaryl derivative, preparation method therefor and use of same in medicine” (priority 2017, dated 2022)
